Data set [1] relates to TECs. The data set is described as follows: TECs proliferation and apoptosis assays. Type of data set: cell-based, mouse. To be noted: TECs in culture, busulfan 800 μM vs DMSO. The method, then: TECs Proliferation and Apoptosis Assays
5×10^3 testicular ECs per well were plated on 8-chamber slide (LabteK) coated with 0.1% gelatin. Busulfan (800 μM) or DMSO were added to each well 24 hours after seeding and cultured for 72 or 96 hours. 10 μM BrdU (BD Pharmingen™) was added to media 72 hours after busulfan treatment, then incubated for 2 hours. Samples were stained with anti-BrdU (1:50; Invitrogen), anti-γ-H2AX (1:400; Millipore) and anti-cleaved caspase 3 (1:400; Cell Signaling). BrdU^+ cells in 10 random high-powered fields were counted and statistics were analyzed using Graph Pad Prism. Each condition was performed in triplicate.

For data set [2], the system named is TECs. The data set is described as follows: Microvessel density (CD31 immunostaining) in testes sections from busulfan-treated mice. Type of data set: in vivo, mouse. As to conditions: wild-type mice, 5 weeks after busulfan vs vehicle. The method, then:
Testes were dissected from male mice were cryoprotected overnight in 20% (wt vol^−1) sucrose then frozen in OCT (Tissue-Tek). Testis sections (10 or 30 m) were blocked (5% normal goat serum and 0.1% bovine serum albumin in 0.1% PBS-T) for 1 hour and washed in 0.1% PBS-T. Primary antibodies: anti-CD31 rat-pAb (1:50; BD science, Cat: 550274), anti-PLZF rabbit-polyclonal Ab (1:50; Santa Cruz, Cat: 22839), anti-DDX4 rabbit pAb (1:200; Abcam, Cat: 13840), anti-Sox9 rabbit pAb (1:200; Millipore, Cat: ABE579), anti-GDNF rabbit polyclonal Ab (1:50; Santa Cruz, Cat: SC328) were diluted in blocking buffer and incubated for 2 hours at RT, then incubated with either anti-mouse Alexa 594 (1:1000, Thermo Fischer, Cat: A110323) or anti-rabbit Alexa 488 (1:1000, Thermo Fischer, Cat: A32723) at RT for 30 minutes. Sections were stained with for 1 min to detect nuclei. […] Digital images were analyzed for the area and density of endothelial cell markers, germline stem cell markers and GDNF by counting 5 random 20× fields per testis section.
Mice were sacrificed 5-6 weeks after Busulfan treatment and tissues were fixed in paraformaldehyde overnight and then embedded in paraffin. […] After all cross sectional areas were counted, the field was randomly moved and all cross-sectional tubules counted in that field. This was continuing until the 10-20 tubules were counted per slide. […]

In data set [3] the test system is SSCs. To be noted: mice, no transplantation; cited from earlier work.
For data set [4], the system named is SSCs. The data set is described as follows: Restoration of spermatogenesis after busulfan exposure. Type of data set: in vivo, mouse. As to conditions: mice, no transplantation.
The next data set relates to GDNF. The data set is described as follows: Western blot of GDNF expression in whole testis lysates. Type of data set: in vivo, mouse. As to conditions: 5 weeks after busulfan vs PBS. An excerpt: Testes harvested from vehicle or busulfan treated-wild type mice were homogenized in RIPA buffer and protein concentration quantified by the BioRad DC Protein Assay. Twenty-five ug of protein per sample were separated by SDS-PAGE, probed with anti-GDNF rabbit polyclonal antibody (1:500; Santa Cruz, Cat: 13147) or anti-cleaved Caspase 3 rabbit polyclonal antibody (1:1000; Cell Signaling, Cat: 9664) and detected by chemiluminescence (ECL, Amersham). Blots were stripped and re-probed with β-actin as a loading control. See Supplementary material for uncropped blots.
FIG. 1. a. Quantication of Gdnf mRNA in Sertoli cells and TECs, and GDNF levels by ELISA in conditioned media from Sertoli cells or TECs without or with FGF-2 (20 ngml-1) treatment for 3 days. b. Murine GFP+Thy1.2+SSCs were co-cultured with TECs or testicular cells depleted of CD31+ TECs but containing all other cell populations in the testes. After 3 weeks, SSC colonies were absent in CD31-depleted testicular cell co-cultures with Sertoli and PTM cells present, while a signicant number of GFP+ Thy1.2+ SSC colonies were present in co-cultures with TECs alone. c. Immunouorescence staining for CD31 (for ECs) on testis sections from wildtype mice 5 weeks after vehicle or busulfan treatment. […] Quantification of MVD and vessel length is shown on the right, n=3.
A general note: Immunoblotting shows a protein as a band on a membrane.

Here are results for one compound from patent US20210386792A1, “A METHOD FOR INCREASING POPULATION OF SPERMATOGONIAL STEM CELLS” (priority 2018, published 2021).

SMILES strings stand for the structures.

For `CS(=O)(=O)OCCCCOS(C)(=O)=O` [busulfan], in the data set on TECs [1] (72 or 96 hours), the “TEC apoptosis (cleaved caspase 3)” value is recorded as “increased apoptosis”. Also, the “TEC proliferation (BrdU)” value with TECs [1] (72 hours) is “decreased proliferation”. In addition, the “microvessel density in testes sections” value with TECs [2] is reported as “significant decrease”. In the data set with SSCs [3], the “time to restoration of spermatogenesis following exposure to busulfan” value is listed as 30-36 weeks. Moreover, the “time required for restoration of murine spermatogenesis post-busulfan treatment” value with SSCs [4] is 6 months. Besides, in the data set on GDNF, the “testis GDNF expression” value was “global decrease”.
